From the supplement of paper PMC10307832

compound: Cc1cnc(CNC(=O)c2c(=O)c3ccc(N4CCCN(C)CC4)nc3n3c2sc2ccccc23)cn1 [CX-5461] + Cc1cc(Nc2cc(N3CCN(C)CC3)nc(Sc3ccc(NC(=O)C4CC4)cc3)n2)n[nH]1 [Tozasertib] (partner 0.1 µM); assay: relative viability (nuclei count vs DMSO), 5 days (fraction); higher = more cells survive; conditions: first compound 0.01 µM
Method in brief: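 Cells from lung cancer lines were seeded into 1536-well plates and, one day later, dosed by pin tool. Treatments were either a single drug or a fixed dose of an anchor drug with five library-drug doses (not always all listed) in √10 steps. After 5 days, nuclei were stained in a one-step fixation (final 0.05% Triton X-100, 1% formaldehyde, 1 ug/ml Hoechst) and counted on 4× images, and relative viability is the treated-to-vehicle nuclei ratio, as the median of duplicate plates.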

Row | Cell Line | relative viability
1 | NCI-H1650 | 0.398
2 | NCI-H1993 | 0.614
3 | SK-LU-1 | 0.33
4 | NCI-H838 | 0.249
5 | LCLC-103H | 0.457
6 | NCI-H520 | 0.442
7 | NCI-H2126 | 0.842
8 | EMC-BAC-2 | 0.275
9 | NCI-H2085 | 0.734
10 | HCC-366 | 0.0846
11 | NCI-H1666 | 0.629
12 | NCI-H596 | 0.866
13 | NCI-H1395 | 0.811
14 | NCI-H2087 | 0.208
15 | NCI-H2342 | 0.521
16 | LK-2 | 0.18
17 | H3255 | 0.691
18 | COR-L23 | 0.246
19 | COR-L 105 | 0.342
20 | LOU-NH91 | 0.75
21 | ChaGo-K-1 | 0.185
22 | HCC-44 | 1.05
23 | SW 900 | 0.555
24 | NCI-H2009 | 0.714
25 | NCI-H661 | 0.35
26 | SW 1573 | 0.183
27 | NCI-H2228 | 0.245
28 | NCI-H2023 | 0.306
29 | SK-MES-1 | 1

same assay, conditions: first compound 0.03162 µM

Row | Cell Line | relative viability
30 | NCI-H522 | 0.44
31 | NCI-H1623 | 0.406
32 | NCI-H727 | 0.666
33 | NCI-H1650 | 0.389
34 | NCI-H1993 | 0.585
35 | SK-LU-1 | 0.339
36 | NCI-H838 | 0.281
37 | LCLC-103H | 0.527
38 | NCI-H520 | 0.419
39 | NCI-H2126 | 0.842
40 | EMC-BAC-2 | 0.314
41 | NCI-H2085 | 0.849
42 | HCC-366 | 0.0825
43 | NCI-H1666 | 0.609
44 | NCI-H596 | 1.04
45 | NCI-H1395 | 0.796
46 | NCI-H2087 | 0.276

Row | Cell Line | relative viability
47 | NCI-H2342 | 0.524
48 | LK-2 | 0.182
49 | H3255 | 0.603
50 | COR-L23 | 0.202
51 | COR-L 105 | 0.339
52 | LOU-NH91 | 0.729
53 | ChaGo-K-1 | 0.227
54 | HCC-44 | 1.25
55 | SW 900 | 0.525
56 | NCI-H1648 | 0.654
57 | NCI-H2009 | 0.776
58 | NCI-H661 | 0.347
59 | SW 1573 | 0.161
60 | NCI-H2228 | 0.213
61 | NCI-H2023 | 0.325
62 | SK-MES-1 | 0.977

same assay, conditions: first compound 0.1 µM

Row | Cell Line | relative viability
63 | NCI-H522 | 0.597
64 | NCI-H1623 | 0.44
65 | NCI-H727 | 0.57
66 | NCI-H1650 | 0.261
67 | NCI-H1993 | 0.566
68 | SK-LU-1 | 0.247
69 | NCI-H838 | 0.271
70 | LCLC-103H | 0.473
71 | NCI-H520 | 0.438
72 | NCI-H2126 | 0.758
73 | EMC-BAC-2 | 0.247
74 | NCI-H2085 | 0.785
75 | HCC-366 | 0.0964
76 | NCI-H1666 | 0.488
77 | NCI-H596 | 0.984
78 | NCI-H1395 | 0.757
79 | NCI-H2087 | 0.243

Row | Cell Line | relative viability
80 | NCI-H2342 | 0.462
81 | LK-2 | 0.162
82 | H3255 | 0.694
83 | COR-L23 | 0.176
84 | COR-L 105 | 0.4
85 | LOU-NH91 | 0.648
86 | ChaGo-K-1 | 0.247
87 | HCC-44 | 0.922
88 | SW 900 | 0.544
89 | NCI-H1648 | 0.607
90 | NCI-H2009 | 0.53
91 | NCI-H661 | 0.348
92 | SW 1573 | 0.147
93 | NCI-H2228 | 0.224
94 | NCI-H2023 | 0.237
95 | SK-MES-1 | 0.728

same assay, conditions: first compound 0.3162 µM

Row | Cell Line | relative viability
96 | NCI-H1623 | 0.463
97 | NCI-H727 | 0.633
98 | NCI-H1650 | 0.357
99 | NCI-H1993 | 0.599
100 | LCLC-103H | 0.391
101 | NCI-H2126 | 0.765
102 | EMC-BAC-2 | 0.252
103 | NCI-H2085 | 0.752
104 | HCC-366 | 0.116
105 | NCI-H1666 | 0.534
106 | NCI-H596 | 0.863
107 | NCI-H1395 | 0.574
108 | NCI-H2087 | 0.265
109 | NCI-H2342 | 0.497
110 | H3255 | 0.568
111 | COR-L23 | 0.182
112 | COR-L 105 | 0.371
113 | ChaGo-K-1 | 0.229
114 | HCC-44 | 0.811
115 | SW 900 | 0.609
116 | NCI-H1648 | 0.397
117 | NCI-H2009 | 0.713
118 | NCI-H661 | 0.351
119 | SW 1573 | 0.172
120 | NCI-H2228 | 0.261
121 | NCI-H2023 | 0.283
122 | SK-MES-1 | 0.815

same assay, conditions: first compound 1 µM

Row | Cell Line | relative viability
123 | NCI-H522 | 0.646
124 | NCI-H1623 | 0.372
125 | NCI-H727 | 0.593
126 | NCI-H1650 | 0.239
127 | NCI-H1993 | 0.556
128 | SK-LU-1 | 0.189
129 | NCI-H838 | 0.273
130 | LCLC-103H | 0.477
131 | NCI-H520 | 0.425
132 | NCI-H2126 | 0.668
133 | EMC-BAC-2 | 0.244
134 | NCI-H2085 | 0.798
135 | HCC-366 | 0.0753
136 | NCI-H1666 | 0.406
137 | NCI-H596 | 0.796
138 | NCI-H1395 | 0.588
139 | NCI-H2087 | 0.159

Row | Cell Line | relative viability
140 | NCI-H2342 | 0.566
141 | LK-2 | 0.183
142 | H3255 | 0.527
143 | COR-L23 | 0.119
144 | COR-L 105 | 0.306
145 | LOU-NH91 | 0.632
146 | ChaGo-K-1 | 0.232
147 | HCC-44 | 0.29
148 | SW 900 | 0.537
149 | NCI-H1648 | 0.514
150 | NCI-H2009 | 0.548
151 | NCI-H661 | 0.338
152 | SW 1573 | 0.166
153 | NCI-H2228 | 0.0867
154 | NCI-H2023 | 0.0913
155 | SK-MES-1 | 0.294
